Test [1] has as its target T1, mannose receptor (MR) on CHO-MR cells (Mus musculus, UniProt Q61830).
T1 construct: expressed in transfected cells; host or cells: CHO (CHO-MR overexpression line, gift of Luisa Martinez-Pomares)
T1 sequence (Q61830 20-1456): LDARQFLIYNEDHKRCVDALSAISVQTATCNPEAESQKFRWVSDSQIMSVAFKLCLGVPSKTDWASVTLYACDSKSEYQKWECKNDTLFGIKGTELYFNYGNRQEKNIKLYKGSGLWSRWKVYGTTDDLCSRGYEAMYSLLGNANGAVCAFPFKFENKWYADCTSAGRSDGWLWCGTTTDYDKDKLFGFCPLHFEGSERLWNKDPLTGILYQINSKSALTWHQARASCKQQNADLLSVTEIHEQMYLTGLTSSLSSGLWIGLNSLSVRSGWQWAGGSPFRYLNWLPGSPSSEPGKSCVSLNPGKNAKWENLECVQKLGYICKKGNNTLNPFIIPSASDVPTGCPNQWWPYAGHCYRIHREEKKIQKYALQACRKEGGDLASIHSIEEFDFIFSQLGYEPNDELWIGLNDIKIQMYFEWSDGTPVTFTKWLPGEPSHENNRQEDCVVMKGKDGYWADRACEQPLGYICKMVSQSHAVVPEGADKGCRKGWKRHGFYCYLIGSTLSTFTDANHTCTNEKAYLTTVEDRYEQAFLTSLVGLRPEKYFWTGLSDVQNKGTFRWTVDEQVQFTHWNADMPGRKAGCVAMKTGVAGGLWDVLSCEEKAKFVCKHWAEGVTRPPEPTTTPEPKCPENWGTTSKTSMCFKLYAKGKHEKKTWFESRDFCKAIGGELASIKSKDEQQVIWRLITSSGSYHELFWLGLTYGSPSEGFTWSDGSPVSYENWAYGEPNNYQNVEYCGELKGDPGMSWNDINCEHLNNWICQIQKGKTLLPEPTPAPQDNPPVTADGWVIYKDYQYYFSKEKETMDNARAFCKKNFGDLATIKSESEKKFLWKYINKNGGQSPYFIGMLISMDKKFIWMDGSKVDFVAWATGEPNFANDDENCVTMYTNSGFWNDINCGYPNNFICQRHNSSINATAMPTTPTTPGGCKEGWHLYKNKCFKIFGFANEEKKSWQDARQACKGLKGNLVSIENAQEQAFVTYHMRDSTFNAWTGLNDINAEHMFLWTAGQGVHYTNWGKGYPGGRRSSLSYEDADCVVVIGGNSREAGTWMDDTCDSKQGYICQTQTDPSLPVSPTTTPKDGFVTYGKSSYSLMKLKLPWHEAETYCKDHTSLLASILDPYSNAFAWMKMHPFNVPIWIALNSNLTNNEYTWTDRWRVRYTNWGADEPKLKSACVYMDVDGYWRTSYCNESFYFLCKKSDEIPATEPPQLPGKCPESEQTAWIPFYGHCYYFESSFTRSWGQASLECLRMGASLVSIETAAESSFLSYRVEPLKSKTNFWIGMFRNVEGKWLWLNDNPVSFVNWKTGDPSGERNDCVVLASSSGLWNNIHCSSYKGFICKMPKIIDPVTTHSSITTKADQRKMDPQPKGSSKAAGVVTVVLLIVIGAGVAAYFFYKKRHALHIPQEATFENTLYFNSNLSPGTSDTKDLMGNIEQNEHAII
Nature of the test: Glyco-PAINT-APP single-molecule glycan binding on CHO-MR cells. Particulars: Suppl. Fig 9, glycan SLP, median. Here is the method: (§1) Single molecule imaging was performed on a Nikon Ti2 N-STORM system equipped with TIRF module, Z piezo element, perfect focus system for axial drift correction and an OkoLab incubator with temperature and CO2 controller (37 °C and 5% CO2) for live-cell imaging. Recordings were acquired using the 647 nm excitation laser (160 mW, 1.9 kW/cm^2). Upon laser excitation, fluorescence was collected by a 100x 1.49 NA oil-immersion objective, passed through a quad-band dichroic mirror (97335 Nikon), and detected by a Hamamatsu ORCA Flash 4.0 CMOS camera with 160 nm pixel size. The signal was collected using the following settings: 512 × 512 pixel region, no binning, pixel depth 16-bit, exposure time 50 ms, live-cell observation and 2D-STORM (lens out), zoom 1x, lens x0.4, and for live-cell observation at 37 °C, the correction collar was set to position 8160.
(§2) 5 x 10^4 CHO-MR or 1 x 10^5 WT, MR^−/− BMDC or BMDM were seeded in 8-well glass-bottomed microscopy slides (Ibidi, 80827) in complete medium. After equilibration in the microscope incubator, fluorescent glycan was added at 5 nM for CHO-MR and 10 nM for BMDC or BMDM experiments. Then, cells were brought into focus using brightfield illumination and 2000 frames (at 50 ms intervals) were recorded within a single field-of-view at 40–60% of maximum 647 nm laser power using TIRF illumination. For indicated experiments, Cytochalasin D (Focus Biomolecules) was added to a final concentration of 10 µM for 30 min prior to acquisition.
(§3) Processing of recordings using Glyco-PAINT-APP was performed as described in a step-by-step procedure in the Supplementary Software Manual in the Supplementary Information and accompanying Supplementary Videos 1 and 2. For the TrackMate processing, a batch file (Experiment Info.csv) containing the experiment metadata and tracking parameters was created. Threshold values were set to 5, 10 or 15 such that no more than 1.500.000 spots were detected. Recordings were then processed in TrackMate using the ‘Run TrackMate Batch’ plugin provided by the Glyco-PAINT-APP. Through this plugin, spot detection and tracking by TrackMate[70] was performed as indicated in the batch file using the Simple LAP tracker algorithm with a maximum frame gap of 3, a max linking distance of 0.6 μm and a gap closing max distance of 1.2 μm. Tracks with only two spots were discarded. For the parameter sensitivity analysis, each tracking or spot detection was varied as indicated, whilst the others were kept at aforementioned values (Basis scenario).
(§4) With the Glyco-PAINT-APP utility ‘Generate Squares’, a grid of squares was overlaid, and kinetic properties for each square were calculated. Default parameters for grid processing are (deviations are mentioned in figure captions): Nr of Squares in row 20, Minimum Tracks to Calculate Tau 20, Min allowable R Squared 0.1, Min Required Density Ratio 2, Maximum Allowable Variability 10 and Neighbour Mode Free.
(§5) For every recording, a background track count was calculated by averaging the track count of the 40 (10% of the total number of squares) least dense squares. Only squares for which the track count exceeded the Min Required Density Ratio of 2 were considered (and the remaining ignored as background). For each square, the variability was calculated and only squares for which the variability was less than the Maximum Allowable Variability of 10 were considered. For squares meeting both the Minimum Required Density Ratio and Maximum Allowable Variability criteria, and containing at least the Minimum Tracks to Calculate Tau kinetic parameters, including kon, koff and MSD were calculated as in Riera et al.[10], or copied from the TrackMate Tracks table output (for velocity, displacement, and track duration).

Test [2] concerns bone-marrow derived mouse dendritic cells (BMDCs). The test is described as follows: Glyco-PAINT-APP single-molecule glycan binding on live WT BMDC. Particulars: for koff−1 / kon: Suppl. Fig 9, glycan SLP, median; for population of squares with binding events of high mobility (high diffusion coefficient) and low event density (kon), uniquely present for WT cells: WT BMDC versus MR-/- BMDC, Fig 4a, b. Here is the method: as §1, §2, §3, §4, §5

sCy5 = sulfo-Cy5

For the substance “Ac-Lys(Man)-Gly-Lys(Man)-TEG-Asp-Glu-Val-Ser-Gly-Leu-Glu-Gln-Leu-Glu-Ser-Ile-Ile-Asn-Phe-Glu-Lys-Leu-Ala-Ala-Ala-Ala-Ala-Lys(sCy5)-NH2 ({Ac-K(Man)-Gly-K(Man)-TEG}-DEVSGLEQLESIINFEKLAAAAAK(sCy5)-NH2) [2 Mono(2), bivalent monomannosylated OVA SLP with sulfo-Cy5]”, the “koff−1” value in test [1] (CHO-MR + CytD) is listed as 85 ms; in test [1] (CHO-MR), 91 ms; in test [2] (BMDC + CytD), 81 ms; in test [2] (BMDC), 96 ms. The kon is recorded as 8.2 evts μm−2 sec−1 in test [1] (CHO-MR + CytD), 6.2 evts μm−2 sec−1 in test [1] (CHO-MR), 3 evts μm−2 sec−1 in test [2] (BMDC + CytD) and 2.4 evts μm−2 sec−1 in test [2] (BMDC). The “population of squares with binding events of high mobility (high diffusion coefficient) and low event density (kon), uniquely present for WT cells” value (“population of squares” below) in test [2] is on record as “most prominent”.

Regarding “Ac-Lys(Man)-Lys(Man)-Lys(Man)-Lys(Man)-Lys(Man)-Lys(Man)-TEG-Asp-Glu-Val-Ser-Gly-Leu-Glu-Gln-Leu-Glu-Ser-Ile-Ile-Asn-Phe-Glu-Lys-Leu-Ala-Ala-Ala-Ala-Ala-Lys(sCy5)-NH2 ({Ac-K(Man)-K(Man)-K(Man)-K(Man)-K(Man)-K(Man)-TEG}-DEVSGLEQLESIINFEKLAAAAAK(sCy5)-NH2) [6 Mono(3), hexavalent monomannosylated OVA SLP with sulfo-Cy5]”, the “koff−1” value in test [1] (CHO-MR + CytD) was 115 ms; in test [1] (CHO-MR), 117 ms; in test [2] (BMDC + CytD), 116 ms; in test [2] (BMDC), 76 ms. For the same substance, the kon in test [1] (CHO-MR + CytD) is recorded as 8.9 evts μm−2 sec−1; in test [1] (CHO-MR), 5.2 evts μm−2 sec−1; in test [2] (BMDC + CytD), 2 evts μm−2 sec−1; in test [2] (BMDC) it was 2.1 evts μm−2 sec−1. In addition, in test [2], the “population of squares” value is recorded as “most prominent”.

With “Ac-Lys(Man)-TEG-Asp-Glu-Val-Ser-Gly-Leu-Glu-Gln-Leu-Glu-Ser-Ile-Ile-Asn-Phe-Glu-Lys-Leu-Ala-Ala-Ala-Ala-Ala-Lys(sCy5)-NH2 ({Ac-K(Man)-TEG}-DEVSGLEQLESIINFEKLAAAAAK(sCy5)-NH2) [1 Mono(1), monovalent monomannosylated OVA SLP with sulfo-Cy5]”, the “koff−1” value came out at 63 ms in test [1] (CHO-MR + CytD), 68 ms in test [1] (CHO-MR), 98 ms in test [2] (BMDC + CytD) and 87 ms in test [2] (BMDC). For the same substance, the kon in test [1] (CHO-MR + CytD) is 3.9 evts μm−2 sec−1; in test [1] (CHO-MR), 3.8 evts μm−2 sec−1; in test [2] (BMDC + CytD), 4.3 evts μm−2 sec−1; in test [2] (BMDC), 0.9 evts μm−2 sec−1. Moreover, in test [2], the “population of squares” value was “not”.

As for “Ac-Lys(triMan)-Gly-Lys(triMan)-TEG-Asp-Glu-Val-Ser-Gly-Leu-Glu-Gln-Leu-Glu-Ser-Ile-Ile-Asn-Phe-Glu-Lys-Leu-Ala-Ala-Ala-Ala-Ala-Lys(sCy5)-NH2 (DEVSGLEQLESIINFEKLAAAAAK; two Lys(triMan), TEG, sulfo-Cy5, C-amide; printed: Asp-Glu-Val-Ser-Gly-Leu-Glu-Gln-Leu-Glu-Ser-Ile-Ile-Asn-Phe-Glu-Lys-Leu-Ala-Ala-Ala-Ala-Ala-Lys) [2 Tri(5), bivalent trimannosylated OVA SLP with sulfo-Cy5]”, the “koff−1” value in test [1] (CHO-MR + CytD) turned out to be 108 ms; in test [1] (CHO-MR), 117 ms; in test [2] (BMDC + CytD), 112 ms; in test [2] (BMDC), 69 ms. In addition, the kon came to 4.6 evts μm−2 sec−1 in test [1] (CHO-MR + CytD), 5 evts μm−2 sec−1 in test [1] (CHO-MR), 7 evts μm−2 sec−1 in test [2] (BMDC + CytD) and 1.1 evts μm−2 sec−1 in test [2] (BMDC). In addition, the “event density, dwell time and diffusion coefficient after CytD treatment” value in test [2] (BMDC, Cytochalasin D treated versus untreated) was “increased significantly”. Also, the “population of squares” value in test [2] was “not”.

Take “Ac-Lys(triMan)-Lys(triMan)-Lys(triMan)-Lys(triMan)-Lys(triMan)-Lys(triMan)-TEG-Asp-Glu-Val-Ser-Gly-Leu-Glu-Gln-Leu-Glu-Ser-Ile-Ile-Asn-Phe-Glu-Lys-Leu-Ala-Ala-Ala-Ala-Ala-Lys(sCy5)-NH2 (DEVSGLEQLESIINFEKLAAAAAK; six Lys(triMan), TEG, sulfo-Cy5, C-amide; printed: Asp-Glu-Val-Ser-Gly-Leu-Glu-Gln-Leu-Glu-Ser-Ile-Ile-Asn-Phe-Glu-Lys-Leu-Ala-Ala-Ala-Ala-Ala-Lys) [6 Tri(6), hexavalent trimannosylated OVA SLP with sulfo-Cy5]”: the “koff−1” value in test [1] (CHO-MR + CytD) is reported as 85 ms; in test [1] (CHO-MR) it was 101 ms; in test [2] (BMDC + CytD), 74 ms; in test [2] (BMDC), 68 ms. For the same substance, the kon in test [1] (CHO-MR + CytD) turned out to be 4.8 evts μm−2 sec−1; in test [1] (CHO-MR) it was 6.2 evts μm−2 sec−1; in test [2] (BMDC + CytD) it was 1.6 evts μm−2 sec−1; in test [2] (BMDC), 2.3 evts μm−2 sec−1. Also, in test [2], the “population of squares” value was “most prominent”.
